Measurements taken from article PMC11530122, “Mutant induced neurons and humanized mice enable identification of Niemann-Pick type C1 proteostatic therapies” (JCI Insight, 2024).
pEC50: −log10 of the molar value.

Biological target: T1, NPC1 (Homo sapiens, UniProt O15118)
T1 construct: full-length WT human NPC1, C-terminal Strep tag, in peptidiscs
T1 sequence (O15118 23-1278): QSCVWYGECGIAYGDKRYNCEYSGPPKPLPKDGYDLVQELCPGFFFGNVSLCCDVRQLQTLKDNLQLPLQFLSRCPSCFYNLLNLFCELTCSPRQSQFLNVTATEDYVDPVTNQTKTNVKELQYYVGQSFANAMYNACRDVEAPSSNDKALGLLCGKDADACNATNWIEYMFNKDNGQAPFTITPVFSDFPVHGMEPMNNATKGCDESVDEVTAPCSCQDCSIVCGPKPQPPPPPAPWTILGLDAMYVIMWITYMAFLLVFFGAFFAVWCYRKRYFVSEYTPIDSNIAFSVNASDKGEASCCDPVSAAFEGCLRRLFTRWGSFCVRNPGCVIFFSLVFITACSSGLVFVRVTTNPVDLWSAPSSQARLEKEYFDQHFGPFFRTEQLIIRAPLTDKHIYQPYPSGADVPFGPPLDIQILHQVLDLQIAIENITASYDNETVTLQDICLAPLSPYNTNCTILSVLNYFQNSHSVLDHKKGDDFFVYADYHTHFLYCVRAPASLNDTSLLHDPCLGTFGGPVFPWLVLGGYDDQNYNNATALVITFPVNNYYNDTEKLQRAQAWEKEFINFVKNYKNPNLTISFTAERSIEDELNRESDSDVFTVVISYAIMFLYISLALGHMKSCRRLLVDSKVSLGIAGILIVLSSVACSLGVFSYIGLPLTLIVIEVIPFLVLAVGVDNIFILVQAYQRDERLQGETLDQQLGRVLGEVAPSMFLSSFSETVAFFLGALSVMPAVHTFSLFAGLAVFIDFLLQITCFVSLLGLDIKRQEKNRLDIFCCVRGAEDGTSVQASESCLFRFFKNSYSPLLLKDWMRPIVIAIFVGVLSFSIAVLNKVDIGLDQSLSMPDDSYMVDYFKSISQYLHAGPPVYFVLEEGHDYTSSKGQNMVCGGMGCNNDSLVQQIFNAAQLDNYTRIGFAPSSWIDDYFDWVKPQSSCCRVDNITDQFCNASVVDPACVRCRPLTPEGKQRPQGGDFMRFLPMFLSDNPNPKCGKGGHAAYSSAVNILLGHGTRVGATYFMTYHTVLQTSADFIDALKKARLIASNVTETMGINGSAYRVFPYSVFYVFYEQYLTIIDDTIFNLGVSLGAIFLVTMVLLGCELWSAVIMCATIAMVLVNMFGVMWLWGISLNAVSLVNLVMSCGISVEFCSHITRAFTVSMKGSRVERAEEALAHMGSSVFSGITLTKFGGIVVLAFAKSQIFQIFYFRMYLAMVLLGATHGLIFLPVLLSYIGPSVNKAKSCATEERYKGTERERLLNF
Experiment: microscale thermophoresis; nanoDSF thermal stability with purified NPC1 (EC50 approximately […])
Format: binding

mo56-hydroxycholesterol [mo56Hc]
pEC50: 6.75
